Measurements published in patent publication US9694016B2 (Novartis AG, priority 2013, dated 2017).
Where two headings read alike, the source gives them in different places.

Molecular target: b-Raf (V600E) (Homo sapiens (Human), UniProt P15056, V600E)
Details: read-out: b-Raf IC-50, AlphaScreen
[1] = 60 min pre-incubation, reaction 3 hours at room temperature
[2] = 60 min pre-incubation, 3 hours reaction

Sequence of b-Raf (V600E) (P15056 whole entry V600E): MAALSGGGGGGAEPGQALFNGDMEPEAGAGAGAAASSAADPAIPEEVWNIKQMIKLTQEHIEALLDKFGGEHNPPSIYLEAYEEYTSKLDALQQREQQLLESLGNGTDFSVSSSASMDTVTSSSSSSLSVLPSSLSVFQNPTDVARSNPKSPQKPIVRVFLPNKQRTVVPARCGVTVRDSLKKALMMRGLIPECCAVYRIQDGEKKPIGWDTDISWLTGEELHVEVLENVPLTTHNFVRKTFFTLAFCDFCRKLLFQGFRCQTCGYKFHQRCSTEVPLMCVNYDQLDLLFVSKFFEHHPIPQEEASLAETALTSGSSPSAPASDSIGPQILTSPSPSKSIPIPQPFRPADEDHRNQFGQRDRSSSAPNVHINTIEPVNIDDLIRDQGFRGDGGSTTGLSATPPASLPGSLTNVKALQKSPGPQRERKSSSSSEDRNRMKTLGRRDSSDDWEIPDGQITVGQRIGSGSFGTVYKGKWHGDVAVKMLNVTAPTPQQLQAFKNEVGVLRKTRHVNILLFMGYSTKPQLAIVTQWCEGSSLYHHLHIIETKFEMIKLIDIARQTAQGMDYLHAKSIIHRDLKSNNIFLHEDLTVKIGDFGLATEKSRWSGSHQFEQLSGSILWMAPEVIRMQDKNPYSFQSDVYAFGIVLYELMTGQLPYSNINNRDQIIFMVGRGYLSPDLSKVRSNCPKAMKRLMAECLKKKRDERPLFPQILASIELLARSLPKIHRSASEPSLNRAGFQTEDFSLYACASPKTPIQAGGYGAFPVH

IC50 [1] | IC50 [2] | Compound | also measured
3.13 nM |  | CCOc1cc(-c2cc(NC(=O)c3ccnc(C4CC4)c3)cnc2C)cc(N2CCOCC2)n1 [Example 1149, 2-cyclopropyl-N-(2′-ethoxy-2-methyl-6′-morpholino-[3,4′-bipyridin]-5-yl)isonicotinamide] | 
 | 21.9 nM | Cc1ncc(NC(=O)c2ccnc(C(C)(C)C#N)c2)cc1-c1cc(N2CCOCC2)n(C)c(=O)c1 [Example 499, 2-(2-cyanopropan-2-yl)-N-(1′,2-dimethyl-6′-morpholino-6′-oxo-1′,2′-dihydro-[3,4′-bipyridin]-5-yl)isonicotinamide] | 
 | 21.4 nM | Cc1ncc(NC(=O)c2cc(CN(C)C)cc(C(F)(F)F)c2)cc1-c1ccc(C#N)c(N2CCOCC2)c1 [Example 685, N-(5-(4-cyano-3-morpholinophenyl)-6-methylpyridin-3-yl)-3-((dimethylamino)methyl)-5-(trifluoromethyl)benzamide] | 
 | 3.3 nM | Cc1ccc(NC(=O)c2ccnc(N(C)CCO)c2)cc1-c1cc(N2CCOCC2)c(=O)n(C)c1 [Example 456] | 
 |  | Cc1ncc(NC(=O)c2cccc(C(F)(F)F)c2)cc1-c1cc(N2CCOCC2)nc(N2CCOCC2)c1 [Example 77, N-(2-methyl-2′,6′-dimorpholino-[3,4′-bipyridin]-5-yl)-3-(trifluoromethyl)benzamide] | IC50 (Table 2, 3 hours reaction): 0.6 nM
4.99 nM |  | Cc1ccc(NC(=O)c2cccc(C(F)(F)F)c2)cc1-c1ccnc(N2CCOCC2=O)c1 [Example 1134] | 
0.6 nM |  | Cc1ccc(NC(=O)c2ccnc(C(F)F)c2)cc1-c1cc(N2CCOCC2)c2nccn2c1 [Example 850, 2-(difluoromethyl)-N-(4-methyl-3-(8-morpholinoimidazo[1,2-a]pyridin-6-yl)phenyl)isonicotinamide] | 
 | 47.4 nM | Cc1ncc(NC(=O)c2ccnc(C(C)(C)C#N)c2)cc1-c1cc(N2CCOCC2)nc(N2CC(O)C2)n1 [Example 767, 2-(2-cyanopropan-2-yl)-N-(5-(2-(3-hydroxyazetidin-1-yl)-6-morpholinopyrimidin-4-yl)-6-methylpyridin-3-yl)isonicotinamide] | 
0.55 nM |  | Cc1ccc(NC(=O)c2ccnc(C(F)F)c2)cc1-c1cc(OCCO)nc(N2CCOCC2)c1 [Example 1160, 2-(difluoromethyl)-N-(3-(2-(2-hydroxyethoxy)-6-morpholinopyridin-4-yl)-4-methylphenyl)isonicotinamide] | 
 |  | Cc1ccc(NC(=O)c2cnnc(C3CC3)c2)cc1-c1cnc(OC2CCOCC2)c(N2CCOCC2)c1 [Example 276, 6-cyclopropyl-N-(4-methyl-3-(5-morpholino-6-((tetrahydro-2H-pyran-4-yl)oxy)pyridin-3-yl)phenyl)pyridazine-4-carboxamide] | IC50 (Table 2, 3 hours reaction): 0.4 nM
2.94 nM |  | Cc1ncc(NC(=O)c2cc(C(C)(F)F)ccn2)cc1-c1cnc(OC(C)C)c(N2CCOCC2)c1 [Example 956, 4-(1,1-difluoroethyl)-N-(6′-isopropoxy-2-methyl-5-morpholino-[3,3′-bipyridin]-5-yl)picolinamide] | 
 | 0.8 nM | Cc1ccc(NC(=O)c2ccnc(C(C)(C)F)c2)cc1-c1cc(N2CCOCC2)c(OC2CCOCC2)nn1 [Example 578, 2-(2-fluoropropan-2-yl)-N-(4-methyl-3-(5-morpholino-6-((tetrahydro-2H-pyran-4-yl)oxy)pyridazin-3-yl)phenyl)isonicotinamide] | 
1.63 nM |  | Cc1ncc(NC(=O)c2ccnc(C(F)(F)F)c2)cc1-c1cc(N2CCOCC2)nc(N2CCOCC2)c1 [Example 1120, N-(2-methyl-2′,6′-dimorpholino-[3,4′-bipyridin]-5-yl)-2-(trifluoromethyl)isonicotinamide] | 
30.6 nM |  | CCn1cc(C(=O)Nc2cnc(C)c(-c3cc(NCCO)nc(N4CCOCC4)c3)c2)cc(C(F)(F)F)c1=O [Example 1044, 1-ethyl-N-(2′-((2-hydroxyethyl)amino)-2-methyl-6′-morpholino-[3,4′-bipyridin]-5-yl)-6-oxo-5-(trifluoromethyl)-1,6-dihydropyridine-3-carboxamide] | 
 | 4.4 nM | CCNc1nc(-c2cc(C(=O)Nc3ccccc3)ccc2C)cc(N2CCOCC2)n1 [Example 731, 3-(2-(ethylamino)-6-morpholinopyrimidin-4-yl)-4-methyl-N-phenylbenzamide] | 
 | 8.4 nM | Cc1ccc(NC(=O)c2cnnc(C(C)(C)C#N)c2)cc1-c1cc(N2CCOCC2)c(=O)n(C)n1 [Example 646, 6-(2-cyanopropan-2-yl)-N-(4-methyl-3-(1-methyl-5-morpholino-6-oxo-1,6-dihydropyridazin-3-yl)phenyl)pyridazine-4-carboxamide] | 
2.01 nM |  | Cc1ccc(NC(=O)c2cncc(C(F)(F)F)c2)cc1-c1cc(N2CCOCC2)c(=O)n(C)c1 [Example 904, N-(4-methyl-3-(1-methyl-5-morpholino-6-oxo-1,6-dihydropyridin-3-yl)phenyl)-5-(trifluoromethyl)nicotinamide] | 

IC50 [1] | IC50 [2] | Compound | also measured
 | 1 nM | CCNc1nc(-c2cc(NC(=O)c3ccnc(C(C)(F)F)c3)ccc2C)cc(N2CCOCC2)n1 [Example 697, 2-(1,1-difluoroethyl)-N-(3-(2-(ethylamino)-6-morpholinopyrimidin-4-yl)-4-methylphenyl)isonicotinamide] | 
 | 8.8 nM | Cc1ncc(NC(=O)c2ccnc(S(C)(=O)=O)c2)cc1-c1cc(N2CCOCC2)n2nccc2n1 [Example 807, N-(6-methyl-5-(7-morpholinopyrazolo[1,5-a]pyrimidin-5-yl)pyridin-3-yl)-2-(methylsulfonyl)isonicotinamide] | 
 |  | CCOc1ncc(-c2cc(NC(=O)c3ccnc(C(C)(C)O)c3)cnc2C)cc1N1CCOCC1 [Example 240, N-(6′-ethoxy-2-methyl-5′-morpholino-[3,3′-bipyridin]-5-yl)-2-(2-hydroxypropan-2-yl)isonicotinamide] | IC50 (Table 2, 3 hours reaction): 15.3 nM
 |  | Cn1cc(-c2cc(NC(=O)c3cccc(C(F)F)c3)ccc2Cl)cc(N2CCOCC2)c1=O [Example 412, N-(4-chloro-3-(1-methyl-5-morpholino-6-oxo-1,6-dihydropyridin-3-yl)phenyl)-3-(difluoromethyl)benzamide] | IC50 (Table 2, 3 hours reaction): 0.8 nM
6.5 nM |  | Cc1ncc(NC(=O)c2ccc(C#N)c(C(F)(F)F)c2)cc1-c1cc(N2CCOCC2)c2nccn2c1 [Example 877, 4-cyano-N-(6-methyl-5-(8-morpholinoimidazo[1,2-a]pyridin-6-yl)pyridin-3-yl)-3-(trifluoromethyl)benzamide] | 
 | 1.1 nM | Cc1ncc(NC(=O)c2ccnc(C(F)(F)F)c2)cc1-c1cc(N2CCOCC2)n2nccc2n1 [Example 798, N-(6-methyl-5-(7-morpholinopyrazolo[1,5-a]pyrimidin-5-yl)pyridin-3-yl)-2-(trifluoromethyl)isonicotinamide] | 
 | 7.5 nM | Cc1ccc(NC(=O)c2ccnc(C(F)F)c2)cc1-c1cc(N2CCOCC2)nc(N2C(=O)OC[C@@H]2C)n1 [Example 785, (S)-2-(difluoromethyl)-N-(4-methyl-3-(2-(4-methyl-2-oxooxazolidin-3-yl)-6-morpholinopyrimidin-4-yl)phenyl)isonicotinamide] | 
 |  | Cc1ccc(NC(=O)c2cccc(C(F)F)c2)cc1-c1cc(N2CCOCC2)c(=O)n(C)n1 [Example 190, 3-(difluoromethyl)-N-(4-methyl-3-(1-methyl-5-morpholino-6-oxo-1,6-dihydropyridazin-3-yl)phenyl)benzamide] | IC50 (Table 2, 3 hours reaction): 2.2 nM
 | 2.5 nM | Cc1ccc(NC(=O)c2ccnc(C(C)C)c2)cc1-c1cc(N2CCOCC2)nc(N2CC(O)C2)n1 [Example 771, N-(3-(2-(3-hydroxyazetidin-1-yl)-6-morpholinopyrimidin-4-yl)-4-methylphenyl)-2-isopropylisonicotinamide] | 
 | 0.9 nM | Cc1ccc(NC(=O)c2ccnc(C(C)(C)C)c2)cc1-c1cc(N2CCOCC2)c2nccn2n1 [Example 845, 2-(tert-butyl)-N-(4-methyl-3-(8-morpholinoimidazo[1,2-b]pyridazin-6-yl)phenyl)isonicotinamide] | 
 | 1.6 nM | CCNc1nc(-c2cc(NC(=O)c3cccc(C(F)F)c3)cnc2C)cc(N2CCOCC2)n1 [Example 722, 3-(difluoromethyl)-N-(5-(2-(ethylamino)-6-morpholinopyrimidin-4-yl)-6-methylpyridin-3-yl)benzamide] | 
 |  | Cc1ccc(NC(=O)c2cccc(C(F)(F)F)c2)cc1-c1cc(N2CCOCC2)nc(NCCO)n1 [Example 31, N-(3-(2-((2-hydroxyethyl)amino)-6-morpholinopyrimidin-4-yl)-4-methylphenyl)-3-(trifluoromethyl)benzamide] | IC50 (Table 2, 3 hours reaction): 0.7 nM
2.08 nM |  | Cc1ccc(NC(=O)c2ccnc(C3(C#N)CC3)c2)cc1-c1cc(N2CCOCC2)nc(N2CC(O)C2)c1 [Example 1071, 2-(1-cyanocyclopropyl)-N-(3-(2-(3-hydroxyazetidin-1-yl)-6-morpholinopyridin-4-yl)-4-methylphenyl)isonicotinamide] | 
2.7 nM |  | Cc1ccc(NC(=O)c2ccnc(C(C)(C)C#N)c2)cc1-c1cc(N2CCOCC2)c(S(C)(=O)=O)nn1 [Example 931, 2-(2-cyanopropan-2-yl)-N-(4-methyl-3-(6-(methylsulfonyl)-5-morpholinopyridazin-3-yl)phenyl)isonicotinamide] | 
 | 2.1 nM | Cc1ccc(NC(=O)c2cc(F)cc(N3CCOCC3)c2)cc1-c1cc(N2CCOCC2)n(C)c(=O)c1 [Example 491, 3-fluoro-N-(4-methyl-3-(1-methyl-6-morpholino-2-oxo-1,2-dihydropyridin-4-yl)phenyl)-5-morpholinobenzamide] | 
13.7 nM |  | Cc1ncc(NC(=O)c2cnnc(C3CC3)c2)cc1-c1cc(N2CCOCC2)nc(N2CC(C)(O)C2)c1 [Example 1101, 6-cyclopropyl-N-(2′-(3-hydroxy-3-methylazetidin-1-yl)-2-methyl-6′-morpholino-[3,4′-bipyridin]-5-yl)pyridazine-4-carboxamide] | 
3.63 nM |  | Cc1ccc(NC(=O)c2cc(C(C)(C)O)ccn2)cc1-c1cnc(OC(C)C)c(N2CCOCC2)c1 [Example 949, 4-(2-hydroxypropan-2-yl)-N-(3-(6-isopropoxy-5-morpholinopyridin-3-yl)-4-methylphenyl)picolinamide] | 
